Like-named read-outs stand apart in the source and are kept apart here.
Experiments:
fish cells = experiment: Zinc induction of metallothionein promoter in fish cells (Example 14); type: cell-based; settings: 100 μM zinc dose
[1] = system: rainbow trout MT promoter; experiment: pMT-CAT reporter in medaka hatchlings with and without zinc (Example 14); type: in vivo; settings: medaka injected with pMT-CAT plasmid, stimulated with zinc vs unstimulated
Method: The activity of the rainbow trout MT promoter was examined by microinjecting plasmids containing pMT operably linked to the CAT reporter into fertilized eggs of medaka, as described in Inoue, et al., Supra. CAT activities were determined in hatchlings with and without stimulation with zinc. Only small trace levels of CAT activity were detected in unstimulated fish, but CAT activity increased in fish stimulated with zinc.

[2] = system: epithelioma papulosum cyprini cells (EPC)
Method: In vitro experiments in epithelioma papulosum cyprini cells (EPC) were performed to verify the mechanisin of action of the “suicide vectors”.
Cell transfection assays were made using Lipofectamine Plus following the instructions of the manufacturer (Gibco, BRL, Gaithersburg, Md.). After 48 hours, the cells were treated with 100 μM ZnCl2, an inducer of the MT promoter.
(100 μM). Cells transfected with the different constructs were left uninduced (a,d) or were treated with […] of ZnCl2 at 48 h. post-transfection (b,c,e,f).

rainbow trout fry = settings: for mortality of rainbow trout fry: 48 hours, fry 0.8 g
Method: Three different concentrations of ZnCl2 (1 μM, 10 μM, 100 μM) were assayed and analyzed for their toxic effects in rainbow trout fry (0.8 g).
Different concentrations of ZnCl2(10 mM, 5 mM, 2.5 mM, 1 mM, 100 μM, […] and 1 μM) were assayed and observed for their toxic effect in rainbow trout. […] After 30 days post-challenge, the correct dose (10 μM ZnCl2) is added to 90 fish per treatment. After 48 hours, PCR analysis with IHNV G and M specific primers is performed to verify that the DNA vaccines have been totally eliminated from muscle tissue of the vaccinated and Zinc exposed fish.

EPC cells = settings: 100, 150, or 200 μM
Method: Persistence of a DNA suicide vector (constructed according to Example 21) in transfected cells was assessed by a reverse transcriptase reaction coupled to PCR (RT-PCR). […] Approximately 24 hours after transfection, the cells were treated with non-toxic concentrations of ZnCl2 (100, 150, or 200 μM). Control cells were left untreated.
At 48 hours after the ZnCl2 addition, total RNA was isolated and an RT-PCR assay using IHNV-G specific primers (5′-[sequence]-3′ provided by SEQ. ID. NO: 2 and 5′-[sequence] [sequence]-3′ provided by SEQ. ID. NO: 3) was performed. PCR conditions were: 94° C. 30 sec, 55° C. 1 min and 72° C. 2 min.

[Zn] [zinc]
toxicity in fish cells (fish cells): without toxicity | nucleic acid expression mediated by the metallothionein promoter (fish cells; fish cells): induces | CAT activity in hatchlings [1]: increased

[Cl-].[Cl-].[Zn+2] [ZnCl2]
effect of ZnCl2 on untransfected EPC control cells [2]: not obviously affected | mortality of rainbow trout fry (rainbow trout fry; 1 μM and 10 μM in water): no mortalities | mortality of rainbow trout fry (rainbow trout fry; 100 μM in water): all fish immersed in 100 μM ZnCl2 had died | concentrations toxic for rainbow trout fry (rainbow trout fry; fry 1 g): higher than 10 μM | toxicity of ZnCl2 to transfected EPC cells (EPC cells): non-toxic
